Columns and labels:
Assay in all cases: relative viability (nuclei count vs DMSO), 5 days (fraction); higher = more cells survive
AZD5582 + Bortezomib = compound: C[C@@H](C(=O)N[C@@H](C1CCCCC1)C(=O)N2CCC[C@H]2C(=O)N[C@@H]3[C@@H](CC4=CC=CC=C34)OCC#CC#CCO[C@@H]5CC6=CC=CC=C6[C@@H]5NC(=O)[C@@H]7CCCN7C(=O)[C@H](C8CCCCC8)NC(=O)[C@H](C)NC)NC [AZD5582] + CC(C)C[C@H](NC(=O)[C@H](Cc1ccccc1)NC(=O)c1cnccn1)B(O)O [Bortezomib] (partner 0.002 µM)
How it was run: (§1)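 The day after seeding in 1536-well plates, lung cancer cell lines were treated by pin tool with a single drug, or with a fixed anchor-drug dose together with five library-drug doses (not always all listed) in √10 steps. After 5 days, a combined fix-and-stain solution (final 0.05% Triton X-100, 1% formaldehyde, 1 ug/ml Hoechst) was added. Nuclei counted on 4× images gave relative viability as treated counts over vehicle counts, reported as the median of duplicate plates.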

AZD5582 + Vorinostat = compound: C[C@@H](C(=O)N[C@@H](C1CCCCC1)C(=O)N2CCC[C@H]2C(=O)N[C@@H]3[C@@H](CC4=CC=CC=C34)OCC#CC#CCO[C@@H]5CC6=CC=CC=C6[C@@H]5NC(=O)[C@@H]7CCCN7C(=O)[C@H](C8CCCCC8)NC(=O)[C@H](C)NC)NC [AZD5582] + O=C(CCCCCCC(=O)Nc1ccccc1)NO [Vorinostat] (partner 1 µM)
How it was run: as §1

[1] = compound: Cn1nnc2c(C(N)=O)ncn2c1=O [Temozolomide] + N=C(N)NC(=N)NCCc1ccccc1 [Phenformin] (partner 250 µM)
How it was run: as §1

Temozolomide + AZD7762 = compound: Cn1nnc2c(C(N)=O)ncn2c1=O [Temozolomide] + NC(=O)Nc1cc(-c2cccc(F)c2)sc1C(=O)N[C@H]1CCCNC1 [AZD7762] (partner 0.2 µM)
How it was run: as §1

Cell Line | relative viability (AZD5582 + Bortezomib; first compound 0.001581 µM) | relative viability (AZD5582 + Bortezomib; first compound 0.005 µM) | relative viability (AZD5582 + Bortezomib; first compound 0.01581 µM) | relative viability (AZD5582 + Bortezomib; first compound 0.05 µM) | relative viability (AZD5582 + Vorinostat; first compound 0.001581 µM) | relative viability (AZD5582 + Vorinostat; first compound 0.005 µM) | relative viability (AZD5582 + Vorinostat; first compound 0.01581 µM) | relative viability (AZD5582 + Vorinostat; first compound 0.05 µM) | relative viability ([1]; first compound 0.2 µM) | relative viability ([1]; first compound 0.6325 µM) | relative viability ([1]; first compound 2 µM) | relative viability ([1]; first compound 6.325 µM) | relative viability ([1]; first compound 20 µM) | relative viability (Temozolomide + AZD7762; first compound 0.2 µM) | relative viability (Temozolomide + AZD7762; first compound 0.6325 µM) | relative viability (Temozolomide + AZD7762; first compound 2 µM) | relative viability (Temozolomide + AZD7762; first compound 6.325 µM) | relative viability (Temozolomide + AZD7762; first compound 20 µM)
NCI-H2405 | 0.972 | 1.01 | 0.88 | 0.947 | 1.04 | 1.1 | 0.88 | 1.11 | 0.492 | 0.395 | 0.42 | 0.378 | 0.431 | 0.821 | 0.79 | 0.828 | 0.759 | 0.75
NCI-H3122 | 1.03 | 0.954 | 1.07 | 0.729 | 0.946 | 1.09 | 0.924 | 0.236 | 0.394 | 0.378 | 0.385 | 0.376 | 0.369 | 1.02 | 1.05 | 1.01 | 0.922 | 0.934
PC-3 [JPC-3] | 0.8 | 0.788 | 0.793 | 0.38 | 0.714 | 0.532 | 0.664 | 0.43 | 0.411 | 0.475 | 0.5 | 0.469 | 0.347 | 0.775 | 0.916 | 0.825 | 0.797 | 0.529
PC-14 | 0.736 | 0.777 | 0.85 | 0.743 | 0.636 | 0.881 | 0.406 | 0.687 | 0.498 | 0.686 | 0.519 | 0.31 | 0.105 | 0.361 | 0.402 | 0.322 | 0.275 | 0.15
RERF-LC-KJ | – | 0.42 | 1.11 | 0.654 | 0.306 | 0.225 | 0.655 | 0.283 | 0.444 | 0.466 | 0.442 | 0.41 | 0.427 | 0.977 | 0.926 | 0.989 | 0.953 | 1.01

From the supplement of paper PMC10307832
